From patent US10993999B2, “Materials and methods for producing improved lentiviral vector particles” (IMMUNE DESIGN CORP., priority 2012, dated 2021)
Read-outs that look alike come from different tables or passages of the source.

Test system: PBMC-derived human dendritic cells
Format: cell-based

Cc1ccnc2c1NC(=O)c1cccnc1N2C1CC1 [Nevirapine]
effect of reverse-transcriptase inhibitor on transduction (integration-competent VSV-G-pseudotyped particles, 20 ng p24): inhibited

Cc1cn([C@H]2C[C@H](N=[N+]=[N-])[C@@H](CO)O2)c(=O)[nH]c1=O [AZT]
effect of reverse-transcriptase inhibitor on transduction (integration-deficient VSV-G-pseudotyped particles, 200 ng p24): inhibited

B1: Vpx: SIVmac Vpx protein (SEQ ID NO: 44), SAMHD1 inhibitor packaged into the lentivirus particles (protein)
chain: MSDPRERIPPGNSGEETIGEAFEWLNRTVEEINREAVNHLPRELIFQVWQRSWEYWHDEQGMSQSYVKYRYLCLMQKALFMHCKKGCRCLGEGHGAGGWRPGPPPPPPPGLA
modifications: Simian immunodeficiency virus
role of Vpx in transduction of human dendritic cells (integration-competent VSV-G-pseudotyped lentiviral vector particles): enhanced | role of Vpx in transduction of human dendritic cells (integration-deficient VSV-G-pseudotyped lentiviral particles): required
